Measurements taken from US20240409585A1, “MACROCYCLIC IMMUNOMODULATORS” (priority 2021, published 2024).
Numbered stars: 1 amine (or outer) side, 2 acyl side, 3 side chain; on linkers, the order of the positions; unused ones are H or OH. Bridge positions count the residues as written; N and C are the ends. Square brackets hold non-standard residues; d marks the D form. Peptide text beside a SMILES is read from it. * marks the point of attachment. ξ: configuration not given here. Ala(piperidin-4-yl) = O=C([C@H](CC1CCN([*:3])CC1)N[*:1])[*:2]; X35 = O=C([C@H](Cc1ccc(-c2cccc(F)c2)cc1)N[*:1])[*:2]; Phe(3-COOH) = N[C@@H](Cc1cccc(C(=O)O)c1)C(=O)O; Phe(4-COOH) = N[C@@H](Cc1ccc(C(=O)O)cc1)C(=O)O; Bip = N[C@@H](Cc1ccc(-c2ccccc2)cc1)C(=O)O; Phe(3-OMe) = COc1cccc(C[C@H](N)C(=O)O)c1; Phe(3-Me) = Cc1cccc(C[C@H](N)C(=O)O)c1; Bta = N[C@@H](Cc1csc2ccccc12)C(=O)O; Val(3-OH) = CC(C)(O)[C@H](N)C(=O)O; 4Pal = N[C@@H](Cc1ccncc1)C(=O)O; Cha = N[C@@H](CC1CCCCC1)C(=O)O; Ile(3ξ) = CCC(C)[C@H](N)C(=O)O; Thr(3ξ) = CC(O)[C@H](N)C(=O)O; Carboxymethyl = O=C(O)C*; NMeA = CN[C@@H](C)C(=O)O; Orn = NCCC[C@H](N)C(=O)O; Dab = NCC[C@H](N)C(=O)O; Dap = NC[C@H](N)C(=O)O

Molecular target: T1, PE-labeled human PD-L1-Ig binding to Jurkat cell line over-expressing human PD-1 (Jurkat-PD-1) (Homo sapiens, UniProt Q15116)
T1 construct: expressed in transfected cells; host or cells: Jurkat
T1 sequence (Q15116 25-288): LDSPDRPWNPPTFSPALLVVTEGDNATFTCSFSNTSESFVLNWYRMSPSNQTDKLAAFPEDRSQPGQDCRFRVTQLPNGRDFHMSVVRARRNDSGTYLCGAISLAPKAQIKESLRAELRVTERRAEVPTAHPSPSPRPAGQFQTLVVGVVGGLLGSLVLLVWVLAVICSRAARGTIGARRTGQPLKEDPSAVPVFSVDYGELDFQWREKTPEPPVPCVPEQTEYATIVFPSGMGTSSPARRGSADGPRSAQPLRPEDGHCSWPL
Assay: Jurkat-PD-1 Cell Binding High-Content Screening Assay (CBA): Method 1
Conditions: Jurkat-hPD-1 cells, PE-labeled PD-L1-Ig 20 nM final; read-out: Jurkat HPDL1 PD1 IC50 (uM) (Method 1)

In the case of `CC(C)C[C@@H]1NC(=O)[C@H](Cc2c[nH]c3ccccc23)NC(=O)[C@H](CC(=O)O)NC(=O)[C@H](Cc2ccc(C(=O)O)cc2)NC(=O)[C@H](Cc2cccc(C(=O)O)c2)NC(=O)CSC[C@@H](C(=O)NCC(N)=O)NC(=O)[C@H](CO)NC(=O)[C@H](C(C)C)NC(=O)[C@H](CC2CCCCC2)NC(=O)[C@H](CCN)NC(=O)[C@@H](CC(C)C)NC(=O)[C@H](C)N(C)C(=O)[C@H](C(C)C)NC(=O)[C@H](Cc2ccc(-c3ccccc3)cc2)NC1=O` [Compound 1879] ({CH2CO}-[Phe(3-COOH)][Phe(4-COOH)]DWL[Bip]V[NMeA][dL][Dab][Cha]VSCG-NH2; thioether N-14), the IC50 is reported as 0.01 µM.

Compound `CC(C)C[C@@H]1NC(=O)[C@H](CCCNC(=N)N)NC(=O)[C@@H](CC(C)C)NC(=O)[C@H](C)N(C)C(=O)[C@H](CCCNC(=N)N)NC(=O)[C@H](Cc2ccc(-c3ccccc3)cc2)NC(=O)[C@H](C(C)C)NC(=O)[C@H](Cc2c[nH]c3ccccc23)NC(=O)[C@H](CC(=O)O)NC(=O)[C@H](Cc2ccc(O)cc2)NC(=O)[C@H](CC(N)=O)NC(=O)CSC[C@@H](C(=O)N[C@@H](C)C(N)=O)NC(=O)[C@H](CO)NC(=O)[C@H](C(C)C)NC1=O` [Compound 1033] ({CH2CO}-NYDWV[Bip]R[NMeA][dL]RLVSCA-NH2; thioether N-14) has an IC50 of 0.03 µM.

Compound `CC(C)C[C@@H]1NC(=O)[C@H](CCCNC(=N)N)NC(=O)[C@H](Cc2csc3ccccc23)NC(=O)[C@H](C)N(C)C(=O)[C@H](CCCNC(=N)N)NC(=O)[C@H](Cc2ccc(-c3ccccc3)cc2)NC(=O)[C@H](C(C)C)NC(=O)[C@H](Cc2c[nH]c3ccccc23)NC(=O)[C@H](CC(=O)O)NC(=O)[C@H](Cc2ccc(O)cc2)NC(=O)[C@H](CCC(N)=O)NC(=O)CSC[C@@H](C(=O)N[C@@H](C)C(N)=O)NC(=O)[C@H](CO)NC(=O)[C@H](C(C)C)NC1=O` [Compound 1057] ({CH2CO}-QYDWV[Bip]R[NMeA][Bta]RLVSCA-NH2; thioether N-14) has an IC50 of 0.18 µM.

`CC(=O)NCC[C@H](NC(=O)[C@@H]1CSCC(=O)N[C@@H](Cc2ccncc2)C(=O)N[C@@H](Cc2ccc(OCC(=O)O)cc2)C(=O)N[C@@H](CC(=O)O)C(=O)N[C@@H](Cc2cccc(C)c2)C(=O)N[C@@H](Cc2ccc(C(=O)O)cc2)C(=O)N[C@@H](Cc2ccc(-c3ccccc3)cc2)C(=O)N[C@@H](Cc2ccc(OCC(=O)O)cc2)C(=O)N(C)[C@@H](C)C(=O)N[C@H](CC(C)C)C(=O)N[C@@H](CCN)C(=O)N[C@@H](CC2CCCCC2)C(=O)N[C@@H](C(C)(C)O)C(=O)N[C@@H](Cc2cnc[nH]2)C(=O)N1)C(N)=O` [Compound 2162] ({CH2CO}-[4Pal]Y(Carboxymethyl)D[Phe(3-Me)][Phe(4-COOH)][Bip]Y(Carboxymethyl)[NMeA][dL][Dab][Cha][Val(3-OH)]HC[Dab](Ac)-NH2; thioether N-14) gave an IC50 of 0.02 µM.

`CCC(C)[C@@H]1NC(=O)[C@H](Cc2ccc(-c3ccccc3)cc2)NC(=O)[C@H](C(C)C)NC(=O)[C@H](Cc2c[nH]c3ccccc23)NC(=O)[C@H](CC(=O)O)NC(=O)[C@H](Cc2ccc(O)cc2)NC(=O)[C@H](CC2CCNCC2)NC(=O)CSC[C@@H](C(=O)N[C@@H](C)C(N)=O)NC(=O)[C@H](C(C)O)NC(=O)[C@H](C(C)C)NC(=O)[C@H](CC2CCCCC2)NC(=O)[C@H](CCN)NC(=O)[C@@H](CC(C)C)NC(=O)[C@H](C)N(C)C1=O` (stereo partly drawn) [Compound 2043] ({CH2CO}-[Ala(piperidin-4-yl)]YDWV[Bip][Ile(3ξ)][NMeA][dL][Dab][Cha]V[Thr(3ξ)]CA-NH2; thioether N-14) showed an IC50 of 0.01 µM.

`CC(C)C[C@@H]1NC(=O)[C@H](Cc2c[nH]c3ccccc23)NC(=O)[C@H](CC(=O)O)NC(=O)[C@H](Cc2ccc(O)cc2)NC(=O)[C@H](Cc2ccccc2)NC(=O)CSC[C@@H](C(=O)N[C@@H](C)C(N)=O)NC(=O)[C@H](CO)NC(=O)[C@H](C(C)C)NC(=O)[C@H](CC(C)C)NC(=O)[C@H](CCCNC(=N)N)NC(=O)[C@@H](CC(C)C)NC(=O)[C@H](C)N(C)C(=O)[C@H](CCCNC(=N)N)NC(=O)[C@H](Cc2ccc(-c3ccccc3)cc2)NC1=O` [Compound 1780] ({CH2CO}-FYDWL[Bip]R[NMeA][dL]RLVSCA-NH2; thioether N-14) showed an IC50 of 0.08 µM.

`CC[C@@H](C)[C@H]1NC(=O)[C@H](C)N(C)C(=O)[C@H](CCCNC(=N)N)NC(=O)[C@H](Cc2ccc(-c3ccccc3)cc2)NC(=O)[C@H](C(C)C)NC(=O)[C@H](Cc2c[nH]c3ccccc23)NC(=O)[C@H](CC(=O)O)NC(=O)[C@H](Cc2ccc(O)cc2)NC(=O)[C@H](Cc2ccccc2)NC(=O)CSC[C@@H](C(=O)N[C@@H](C)C(N)=O)NC(=O)[C@H]([C@@H](C)O)NC(=O)[C@H](C(C)C)NC(=O)[C@H](CC(C)C)NC(=O)[C@H](CCCNC(=N)N)NC1=O` [Compound 1066] ({CH2CO}-FYDWV[Bip]R[NMeA][dI]RLVTCA-NH2; thioether N-14) showed an IC50 of 0.79 µM.

`CC(C)C[C@@H]1NC(=O)[C@H](Cc2c[nH]c3ccccc23)NC(=O)[C@H](CC(=O)O)NC(=O)[C@H](Cc2ccc(C(=O)O)cc2)NC(=O)[C@H](Cc2ccc(OCC(=O)O)cc2)NC(=O)CSC[C@@H](C(=O)NCC(N)=O)NC(=O)[C@H](CO)NC(=O)[C@H](C(C)C)NC(=O)[C@H](CC(C)C)NC(=O)[C@H](CC(N)=O)NC(=O)[C@@H](CC(C)C)NC(=O)[C@H](C)N(C)C(=O)[C@H](C(C)C)NC(=O)[C@H](Cc2ccc(-c3ccccc3)cc2)NC1=O` [Compound 1548] ({CH2CO}-Y(Carboxymethyl)[Phe(4-COOH)]DWL[Bip]V[NMeA][dL]NLVSCG-NH2; thioether N-14) was tested, and the IC50 was 0.01 µM.

`CC(C)C[C@@H]1NC(=O)[C@H](Cc2c[nH]c3ccccc23)NC(=O)[C@H](CC(=O)O)NC(=O)[C@H](Cc2ccc(O)cc2)NC(=O)[C@H](Cc2ccccc2)NC(=O)CSC[C@@H](C(=O)N[C@@H](C)C(N)=O)NC(=O)[C@H](CO)NC(=O)[C@H](C(C)C)NC(=O)[C@H](CC(C)C)NC(=O)[C@H](CC(N)=O)NC(=O)[C@@H](C)NC(=O)[C@H](C)N(C)C(=O)[C@H](C(C)C)NC(=O)[C@H](Cc2ccc(-c3cccc(F)c3)cc2)NC1=O` [Compound 1759] ({CH2CO}-FYDWL[X35]V[NMeA][dA]NLVSCA-NH2; thioether N-14) was tested, and the IC50 was 0.03 µM.

Work on `COc1cccc(C[C@@H]2NC(=O)[C@H](CN)NC(=O)CSC[C@@H](C(=O)N[C@@H](C)C(N)=O)NC(=O)[C@H]([C@@H](C)O)NC(=O)[C@H](C(C)C)NC(=O)[C@H](CC(C)C)NC(=O)[C@H](CCN)NC(=O)[C@@H](CC(C)C)NC(=O)[C@H](C)N(C)C(=O)[C@H](C(C)C)NC(=O)[C@H](Cc3ccc(-c4ccccc4)cc3)NC(=O)[C@H](C(C)C)NC(=O)[C@H](Cc3c[nH]c4ccccc34)NC(=O)[C@H](CC(=O)O)NC2=O)c1` [Compound 1427] ({CH2CO}-[Dap][Phe(3-OMe)]DWV[Bip]V[NMeA][dL][Dab]LVTCA-NH2; thioether N-14) yielded an IC50 of 0.11 µM.

With `CCC(C)[C@@H]1NC(=O)[C@H](Cc2ccc(-c3ccccc3)cc2)NC(=O)[C@H](C(C)C)NC(=O)[C@H](Cc2cccc(C)c2)NC(=O)[C@H](CC(=O)O)NC(=O)[C@H](Cc2ccc(OCC(=O)O)cc2)NC(=O)[C@H](Cc2ccncc2)NC(=O)CSC[C@@H](C(=O)N[C@@H](CCCN)C(N)=O)NC(=O)[C@H](C(C)O)NC(=O)[C@H](C(C)(C)O)NC(=O)[C@H](CC2CCCCC2)NC(=O)[C@H](CCN)NC(=O)[C@@H](CC(C)C)NC(=O)[C@H](C)N(C)C1=O` (stereo partly drawn) [Compound 2145] ({CH2CO}-[4Pal]Y(Carboxymethyl)D[Phe(3-Me)]V[Bip][Ile(3ξ)][NMeA][dL][Dab][Cha][Val(3-OH)][Thr(3ξ)]C[Orn]-NH2; thioether N-14) the IC50 was 0.01 µM.
